Publication PMC5844530, “Fosmetpantotenate (RE-024), a phosphopantothenate replacement therapy for pantothenate kinase-associated neurodegeneration: Mechanism of action and efficacy in nonclinical models” (PLoS ONE, 2018)
“And” between values parts separate entries of the source, which are not always exact repeats. Identical values can stand only once.

Assays:
[1] = Pharmacokinetics in whole blood, Sprague-Dawley rats; conditions: for % Parent AUCAll: Sprague-Dawley rat, metabolite AUCall/Parent AUCall x 100; for Whole Blood Conc. of compound 1: Sprague-Dawley rats; for concentration at 0.167 h / concentration at 0.33 h: Sprague-Dawley, rat, in vivo, po, Whole Blood Conc. of compound 1, Sprague-Dawley rats
Procedure: The whole blood samples (0.5 mL) were collected into syringes that were prefilled with 2.5 mL of ice-cold 0.1% formic acid in acetonitrile. The volume ratio of the whole blood to 0.1% formic acid in acetonitrile was 1/5 (v/v). Samples were frozen (-70°C) until analyzed by LC-MS/MS.
Standard curves and quality control (QC) samples were prepared fresh on the day of analysis by serial dilution of the standard mixture in quenched whole blood (1 part of blood to 5 parts of 0.1% formic acid in acetonitrile) and centrifuged. […] The frozen study samples were thawed in an ice/water bath and centrifuged. Supernatant (50 μL) from standards, QC samples, and study samples was transferred to a 96-well plate and dried completely under nitrogen. The dried residues were reconstituted with 100 μL of 0.1% formic acid in water containing internal standard (5 ng/mL of ^15N/^13C3-RE-024-02) and analyzed by LC-MS/MS.
LC-MS/MS analysis for blood pharmacokinetic samples: Samples were analyzed using an Agilent 1100 binary pump (Agilent Technologies, Santa Clara, CA, USA), connected to an AB Sciex API 6500 mass spectrometer (SCIEX, Framingham, MA, USA). An electrospray ionization source was used, scanning in the positive mode. […] The chromatography column was a Varian Metasil AQ 120–5 C18 column, 5 μm, 50 x 2.00 mm (Part No. A0530050X020) at ambient temperature, with a 0.5 mL/min flow rate and a 20 μL injection volume. Mobile phase (A) consisted of 0.1% formic acid in water; while mobile phase (B) consisted of 0.1% formic acid in acetonitrile:water (9:1, v/v).
Quantitation of in vivo samples: Peak areas were integrated using Analyst software (AB Sciex, Concord, Ontario, Canada). […] Calibration standards (at a minimum 7 per curve) were fit by linear regression with (1/x^2) weighting. QC samples were used (triplicate) at 3 concentrations for all tandem mass spectrometry (MS/MS) runs.
Pharmacokinetic calculations: PK analysis was performed using Phoenix WinNonlin®, Build 6.3.0.395 (Certara, Princeton, NJ, USA) using a non-compartmental model (PO dose = model 200 for extravascular dosing). […] Post-dose concentrations below the limit of quantitation (BLQ) were omitted from calculation.

[2] = Pharmacokinetics in whole blood, cynomolgus monkeys
[3] = Pharmacokinetics in whole blood, CD-1 mice; conditions: for % Parent AUCAll: CD1 mouse, metabolite AUCall/Parent AUCall x 100; for Compound 1 Whole Blood Conc.: CD-1 mice, 100 mg/kg RE-024-02 by PO, individual animals

COC(=O)CCNC(=O)[C@@H]1OP(=O)(N[C@@H](C)C(=O)OC)OCC1(C)C (some centres unmarked) [Compound 1]
% Parent AUCAll ([1]; 300 mg/kg PO): 39% | % Parent AUCAll ([1]; 700 mg/kg PO): 22% | Whole Blood Conc. of compound 1 ([1]; single 100 mg/kg RE-024-02 PO, time 0.5, LLOQ 0.60 ng/mL): BQL | Whole Blood Conc. of compound 1 ([1]; single 100 mg/kg RE-024-02 PO, time 0.5, LLOQ 1.58 nM): BQL | Whole Blood Conc. of compound 1 ([1]; single 100 mg/kg RE-024-02 PO, time 1, LLOQ 0.60 ng/mL): BQL | Whole Blood Conc. of compound 1 ([1]; single 100 mg/kg RE-024-02 PO, time 1, LLOQ 1.58 nM): BQL | Whole Blood Conc. of compound 1 ([1]; single 100 mg/kg RE-024-02 PO, time 2, LLOQ 0.60 ng/mL): BQL | Whole Blood Conc. of compound 1 ([1]; single 100 mg/kg RE-024-02 PO, time 2, LLOQ 1.58 nM): BQL | Whole Blood Conc. of compound 1 ([1]; single 100 mg/kg RE-024-02 PO, time 4, LLOQ 0.60 ng/mL): BQL | Whole Blood Conc. of compound 1 ([1]; single 100 mg/kg RE-024-02 PO, time 4, LLOQ 1.58 nM): BQL | Whole Blood Conc. of compound 1 ([1]; single 100 mg/kg RE-024-02 PO, time 8, LLOQ 0.60 ng/mL): BQL | Whole Blood Conc. of compound 1 ([1]; single 100 mg/kg RE-024-02 PO, time 8, LLOQ 1.58 nM): BQL | Whole Blood Conc. of compound 1 ([1]; single 300 mg/kg RE-024-02 PO, time 0.33, LLOQ 0.60 ng/mL, 300 mg/kg): 41.34 ng/mL and 21.6 ng/mL | Whole Blood Conc. of compound 1 ([1]; single 300 mg/kg RE-024-02 PO, time 0.33, LLOQ 1.58 nM, 300 mg/kg): 108.7 nM and 56.79 nM | Whole Blood Conc. of compound 1 ([1]; single 300 mg/kg RE-024-02 PO, time 2, LLOQ 0.60 ng/mL): BQL | Whole Blood Conc. of compound 1 ([1]; single 300 mg/kg RE-024-02 PO, time 2, LLOQ 1.58 nM): BQL | Whole Blood Conc. of compound 1 ([1]; single 300 mg/kg RE-024-02 PO, time 4, LLOQ 0.60 ng/mL): BQL | Whole Blood Conc. of compound 1 ([1]; single 300 mg/kg RE-024-02 PO, time 4, LLOQ 1.58 nM): BQL | Whole Blood Conc. of compound 1 ([1]; single 300 mg/kg RE-024-02 PO, time 8, LLOQ 0.60 ng/mL): BQL | Whole Blood Conc. of compound 1 ([1]; single 300 mg/kg RE-024-02 PO, time 8, LLOQ 1.58 nM): BQL | Whole Blood Conc. of compound 1 ([1]; single 700 mg/kg RE-024-02 PO, time 8, LLOQ 0.60 ng/mL): BQL | Whole Blood Conc. of compound 1 ([1]; single 700 mg/kg RE-024-02 PO, time 8, LLOQ 1.58 nM): BQL | concentration at 0.167 h ([1]; 100 mg/kg, single 100 mg/kg RE-024-02 PO, time 0.167, LLOQ 0.60 ng/mL): 3.88 ng/mL | concentration at 0.167 h ([1]; 100 mg/kg, single 100 mg/kg RE-024-02 PO, time 0.167, LLOQ 1.58 nM): 10.2 nM | concentration at 0.33 h ([1]; 100 mg/kg, single 100 mg/kg RE-024-02 PO, time 0.33, LLOQ 0.60 ng/mL): 1.21 ng/mL | concentration at 0.33 h ([1]; 100 mg/kg, single 100 mg/kg RE-024-02 PO, time 0.33, LLOQ 1.58 nM): 3.18 nM | concentration at 0.33 h ([1]; 300 mg/kg, single 300 mg/kg RE-024-02 PO, time 0.33, LLOQ 0.60 ng/mL): 22.6 ng/mL | concentration at 0.33 h ([1]; 300 mg/kg, single 300 mg/kg RE-024-02 PO, time 0.33, LLOQ 1.58 nM): 59.3 nM | % Parent AUCAll ([2]; Cynomolgus monkey, 300 mg/kg PO, metabolite AUCall/Parent AUCall x 100): 19% | concentration at 0.083 h ([2]; cynomolgus monkey, in vivo, po, 300 mg/kg, Concentration of compound 1 in whole blood, cynomolgus monkeys, single oral 300 mg/kg fosmetpantotenate, 0.083 hr, sum of diastereomers, LLOQ 1.58 nM): 17.2 nM | concentration at 0.5 h ([2]; cynomolgus monkey, in vivo, po, 300 mg/kg, Concentration of compound 1 in whole blood, cynomolgus monkeys, single oral 300 mg/kg fosmetpantotenate, 0.5 hr, sum of diastereomers, LLOQ 1.58 nM): 2480 nM | concentration at 4 h ([2]; cynomolgus monkey, in vivo, po, 300 mg/kg, Concentration of compound 1 in whole blood, cynomolgus monkeys, single oral 300 mg/kg fosmetpantotenate, 4 hr, sum of diastereomers, LLOQ 1.58 nM): 54.6 nM | concentration at 8 h ([2]; cynomolgus monkey, in vivo, po, 300 mg/kg, Concentration of compound 1 in whole blood, cynomolgus monkeys, single oral 300 mg/kg fosmetpantotenate, 8 hr, sum of diastereomers, LLOQ 1.58 nM): 7.89 nM | Concentration of compound 1 in whole blood ([2]; cynomolgus monkeys, single oral 300 mg/kg fosmetpantotenate, 0.083 hr, sum of diastereomers, LLOQ 1.58 nM, 300 mg/kg): 11.28 nM | Concentration of compound 1 in whole blood ([2]; cynomolgus monkeys, single oral 300 mg/kg fosmetpantotenate, 0.5 hr, sum of diastereomers, LLOQ 1.58 nM, 300 mg/kg): 3160.36 nM | Concentration of compound 1 in whole blood ([2]; cynomolgus monkeys, single oral 300 mg/kg fosmetpantotenate, 4 hr, sum of diastereomers, LLOQ 1.58 nM, 300 mg/kg): 96.23 nM | Concentration of compound 1 in whole blood ([2]; cynomolgus monkeys, single oral 300 mg/kg fosmetpantotenate, 8 hr, sum of diastereomers, LLOQ 1.58 nM, 300 mg/kg): 4.57 nM | % Parent AUCAll ([3]; 100 mg/kg PO): 129% | % Parent AUCAll ([3]; 300 mg/kg PO): 307% | % Parent AUCAll ([3]; 700 mg/kg PO): 257% | Compound 1 Whole Blood Conc. ([3]; 0.033 hr, LLOQ 0.6 ng/mL, 100 mg/kg): 4.6 ng/mL and 4 ng/mL and 74.4 ng/mL and 3.2 ng/mL | Compound 1 Whole Blood Conc. ([3]; 0.033 hr, LLOQ 1.6 nM, 100 mg/kg): 12.2 nM and 10.6 nM and 195.6 nM and 8.4 nM | Compound 1 Whole Blood Conc. ([3]; 0.083 hr, LLOQ 0.6 ng/mL, 100 mg/kg): BQL and 1 ng/mL | Compound 1 Whole Blood Conc. ([3]; 0.083 hr, LLOQ 1.6 nM, 100 mg/kg): BQL and 2.7 nM | Compound 1 Whole Blood Conc. ([3]; 0.167 hr, LLOQ 0.6 ng/mL, 100 mg/kg): 4.3 ng/mL and BQL and 10.8 ng/mL | Compound 1 Whole Blood Conc. ([3]; 0.167 hr, LLOQ 1.6 nM, 100 mg/kg): 11.4 nM and BQL and 28.4 nM | Compound 1 Whole Blood Conc. ([3]; 0.333 hr, LLOQ 0.6 ng/mL, 100 mg/kg): BQL | Compound 1 Whole Blood Conc. ([3]; 0.333 hr, LLOQ 1.6 nM, 100 mg/kg): BQL | Compound 1 Whole Blood Conc. ([3]; 0.5 hr, LLOQ 0.6 ng/mL): BQL | Compound 1 Whole Blood Conc. ([3]; 0.5 hr, LLOQ 1.6 nM): BQL | Compound 1 Whole Blood Conc. ([3]; 1 hr, LLOQ 0.6 ng/mL): BQL | Compound 1 Whole Blood Conc. ([3]; 1 hr, LLOQ 1.6 nM): BQL | Compound 1 Whole Blood Conc. ([3]; 2 hr, LLOQ 0.6 ng/mL): BQL
